US7879876B2, “Sulfonamide derivatives and use thereof for the modulation of metalloproteinases” (Merck Serono SA, priority 2005, dated 2011)
pIC50: −log10 of the molar value.

Columns and labels:
Format in all cases: biochemical
gelatinase A (MMP-2) = molecular target: T1, gelatinase A (MMP-2) (Homo sapiens, UniProt P08253); assay: MMP-2 enzyme inhibition assay (coumarin-labelled peptide substrate); conditions: read-out: IC50 MMP2
T1 sequence (P08253 110-660): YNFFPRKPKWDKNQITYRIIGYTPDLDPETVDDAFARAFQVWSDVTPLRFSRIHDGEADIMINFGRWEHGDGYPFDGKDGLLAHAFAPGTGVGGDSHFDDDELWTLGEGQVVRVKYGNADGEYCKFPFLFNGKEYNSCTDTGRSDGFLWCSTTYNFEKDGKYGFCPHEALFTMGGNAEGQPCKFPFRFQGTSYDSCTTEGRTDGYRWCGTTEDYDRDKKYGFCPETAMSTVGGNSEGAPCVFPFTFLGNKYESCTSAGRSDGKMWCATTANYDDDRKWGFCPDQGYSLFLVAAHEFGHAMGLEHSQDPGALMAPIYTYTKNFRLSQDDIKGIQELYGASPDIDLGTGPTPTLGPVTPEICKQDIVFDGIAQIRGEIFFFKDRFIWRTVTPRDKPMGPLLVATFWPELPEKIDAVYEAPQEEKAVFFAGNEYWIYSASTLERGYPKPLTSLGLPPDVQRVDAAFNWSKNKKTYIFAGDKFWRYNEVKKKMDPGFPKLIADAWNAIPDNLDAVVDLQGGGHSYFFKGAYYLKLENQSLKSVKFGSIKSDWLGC
Outline: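 Recombinant human MMP-2, APMA-activated if necessary, run as for the MMP-9 protocol: McaPLGLDpaAR substrate (8 μM working dilution) in 100 mM Tris-HCl pH 7.6, 100 mM NaCl, 10 mM CaCl2, 0.05% Brij 35; ten 3-fold concentrations (100 μM–5.1 nM) in duplicate, 2 h at 37° C. Fluorescence ex 320/em 405 nm, unstopped; IC50 from four-parameter fit.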

[1] = molecular target: 92 kDa gelatinase (MMP-9) (Homo sapiens, UniProt P14780); assay: MMP-9 enzyme inhibition assay (coumarin-labeled peptide substrate); conditions: @ 5 μM; read-out: percentage inhibition MMP9
Outline: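 Recombinant human MMP-9 (APMA-activated if needed) was assayed in 100 mM Tris-HCl pH 7.6, 100 mM NaCl, 10 mM CaCl2, 0.05% Brij 35, with McaPLGLDpaAR substrate at 37° C. for 2 h. Fluorescence was read at ex 320/em 405 nm over ten 3-fold compound doses (100 μM–5.1 nM) in duplicate. IC50 came from a four-parameter fit.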

human ADAM17 (TACE) = human ADAM17 (TACE) (Homo sapiens, UniProt P78536); assay: TACE enzyme inhibition assay
Outline: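 Recombinant human ADAM17 was run in 20 mM HEPES pH 7.5 with 0.05% Brij 35, using Mca/Dnp-TNF-alpha(−5 to +6) amide substrate (5 μM solution), for 1.5 h at room temperature. Fluorescence (ex 355/em 405 nm) was read unstopped over ten concentrations (100 μM–0.01 nM). IC50 came from a four-parameter fit, rounded to one significant figure.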

Sequence of 92 kDa gelatinase (MMP-9) (P14780 107-707 limits assumed): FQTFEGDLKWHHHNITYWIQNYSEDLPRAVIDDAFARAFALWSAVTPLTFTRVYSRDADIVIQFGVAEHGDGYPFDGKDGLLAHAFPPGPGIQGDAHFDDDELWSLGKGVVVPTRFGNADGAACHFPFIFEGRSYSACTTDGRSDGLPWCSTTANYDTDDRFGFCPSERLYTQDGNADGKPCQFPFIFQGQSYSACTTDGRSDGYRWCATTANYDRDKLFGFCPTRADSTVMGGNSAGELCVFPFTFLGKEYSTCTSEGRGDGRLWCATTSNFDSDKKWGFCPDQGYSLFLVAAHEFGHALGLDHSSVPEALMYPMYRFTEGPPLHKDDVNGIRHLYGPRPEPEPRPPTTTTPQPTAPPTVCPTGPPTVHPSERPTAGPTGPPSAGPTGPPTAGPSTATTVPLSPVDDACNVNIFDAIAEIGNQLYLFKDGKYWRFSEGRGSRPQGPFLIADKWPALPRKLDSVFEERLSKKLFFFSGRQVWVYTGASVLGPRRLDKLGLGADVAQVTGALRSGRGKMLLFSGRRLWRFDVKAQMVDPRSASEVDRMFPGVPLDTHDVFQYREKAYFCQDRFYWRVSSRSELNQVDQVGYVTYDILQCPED
Sequence of human ADAM17 (TACE) (P78536 215-824): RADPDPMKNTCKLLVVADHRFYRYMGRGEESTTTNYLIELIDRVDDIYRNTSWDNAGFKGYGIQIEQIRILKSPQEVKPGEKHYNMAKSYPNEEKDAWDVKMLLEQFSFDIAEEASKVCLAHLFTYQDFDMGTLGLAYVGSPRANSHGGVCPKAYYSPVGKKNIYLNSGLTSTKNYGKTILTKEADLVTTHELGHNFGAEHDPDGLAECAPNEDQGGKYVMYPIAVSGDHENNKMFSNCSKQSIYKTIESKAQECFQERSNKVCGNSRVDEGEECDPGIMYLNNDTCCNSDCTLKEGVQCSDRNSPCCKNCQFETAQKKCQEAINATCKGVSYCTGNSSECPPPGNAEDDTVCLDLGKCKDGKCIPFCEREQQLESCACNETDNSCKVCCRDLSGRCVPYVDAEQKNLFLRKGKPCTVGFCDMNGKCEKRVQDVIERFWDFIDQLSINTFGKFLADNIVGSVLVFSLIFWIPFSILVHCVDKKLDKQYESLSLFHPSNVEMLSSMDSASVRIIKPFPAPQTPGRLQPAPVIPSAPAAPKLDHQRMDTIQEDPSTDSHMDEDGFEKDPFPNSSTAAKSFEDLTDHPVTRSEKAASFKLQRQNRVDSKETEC

SMILES	pIC50 (gelatinase A (MMP-2))	inhibition at 5 µM [1]	pIC50 (human ADAM17 (TACE))
O=CN(O)C(CS(=O)(=O)N1CCc2ccc(-c3ccccc3)cc2C1)C1CCCC1 (stereo not drawn) [Example 69, N-{1-cyclopentyl-2-[(7-phenyl-3,4-dihydroisoquinolin-2(1H)-yl)sulfonyl]ethyl}-N-hydroxyformamide]	6.28	26%	6.22
O=CN(O)C(CS(=O)(=O)N1CCc2ccc(-c3cccc(O)c3)cc2C1)C1CCCC1 (stereo not drawn) [Example 70, N-(1-cyclopentyl-2-{[7-(3-hydroxyphenyl)-3,4-dihydroisoquinolin-2(1H)-yl]sulfonyl}ethyl)-N-hydroxyformamide]	5.81	3%	< 5.30
O=CN(O)C(CS(=O)(=O)N1Cc2ccccc2C1)C1CC1 (stereo not drawn) [Example 72, N-[1-cyclopropyl-2-(1,3-dihydro-2H-isoindol-2-ylsulfonyl)-ethyl]-N-hydroxyformamide]	6.29	28%	6.17
O=CN(O)C(CS(=O)(=O)N1CCc2ccc(Cl)cc2C1)C1CC1 (stereo not drawn) [Example 73, N-{2-[(7-chloro-3,4-dihydroisoquinolin-2(1H)-yl)sulfonyl]-1-cyclopropylethyl}-N-hydroxyformamide]	6.73	5%	7.06
O=CN(O)C(CS(=O)(=O)N1CCc2cc(C(F)(F)F)ccc2C1)C1CC1 (stereo not drawn) [Example 74, N-(1-cyclopropyl-2-{[6-(trifluoromethyl)-3,4-dihydro-isoquinolin-2(1H)-yl]sulfonyl}ethyl)-N-hydroxyformamide]	7.01	32%	< 5.30
O=CN(O)C(CS(=O)(=O)N1CCc2ccc(-c3ccc(F)cc3)cc2C1)C1CC1 (stereo not drawn) [Example 75, N-(1-cyclopropyl-2-{[7-(4-fluorophenyl)-3,4-dihydro-isoquinolin-2(1H)-yl]sulfonyl}ethyl)-N-hydroxyformamide]	6.66	71%	6.40
O=CN(O)C(CCC(F)(F)F)CS(=O)(=O)N1CCc2ccc(Cl)cc2C1 (stereo not drawn) [Example 76, N-(1-{[(7-chloro-3,4-dihydroisoquinolin-2(1H)-yl)-sulfonyl]methyl}-4,4,4-trifluorobutyl)-N-hydroxyformamide]	7.09	14%	6.94
O=CN(O)C(CS(=O)(=O)N1CCc2cc(Cl)c(Cl)cc2C1)C1CCCC1 (stereo not drawn) [Example 77, N-{1-cyclopentyl-2-[(6,7-dichloro-3,4-dihydroisoquinolin-2(1H)-yl)sulfonyl]ethyl}-N-hydroxyformamide]	7.51	35%	6.64

Further lines, results first:

pIC50 (gelatinase A (MMP-2))	inhibition at 5 µM [1]	pIC50 (human ADAM17 (TACE))	SMILES
7.17	57%	6.23	O=CN(O)C(CS(=O)(=O)N1CCc2ccc(-c3ccncc3)cc2C1)C1CCCC1 (stereo not drawn) [Example 79, N-{1-cyclopentyl-2-[(7-pyridin-4-yl-3,4-dihydroisoquinolin-2(1H)-yl)sulfonyl]ethyl}-N-hydroxyformamide]
6.32	0%	< 5.30	O=CN(O)C(CS(=O)(=O)N1Cc2ccc(F)cc2C1)C1CCCC1 (stereo not drawn) [Example 80, N-{1-cyclopentyl-2-[(5-fluoro-1,3-dihydro-2H-isoindol-2-yl)sulfonyl]ethyl}-N-hydroxyformamide]
7.20	44%	< 5.30	CC(C)c1ccc2c(c1)CCN(S(=O)(=O)CC(C1CCCC1)N(O)C=O)C2 (stereo not drawn) [Example 81, N-{1-cyclopentyl-2-[(6-isopropyl-3,4-dihydroisoquinolin-2(1H)-yl)sulfonyl]ethyl}-N-hydroxyformamide]
6.46	0%	< 5.30	O=CN(O)C(CS(=O)(=O)N1CCc2ccc(C(F)(F)F)cc2C1)C1CCCC1 (stereo not drawn) [Example 82, N-(1-cyclopentyl-2-{[7-(trifluoromethyl)-3,4-dihydro-isoquinolin-2(1H)-yl]sulfonyl}ethyl)-N-hydroxyformamide]
6.16	4%	< 5.30	O=CN(O)C(CS(=O)(=O)N1CCc2ccc(C(F)(F)F)cc2C1)C1CC1 (stereo not drawn) [Example 83, N-(1-cyclopropyl-2-{[7-(trifluoromethyl)-3,4-dihydroisoquinolin-2(1H)-yl]sulfonyl}ethyl)-N-hydroxyformamide]
7.11	28%	< 5.30	CC(C)c1ccc2c(c1)CCN(S(=O)(=O)CC(C1CC1)N(O)C=O)C2 (stereo not drawn) [Example 85, N-{1-cyclopropyl-2-[(6-isopropyl-3,4-dihydroisoquinolin-2(1H)-yl)sulfonyl]ethyl}-N-hydroxyformamide]
7.68	52%	7.23	O=CN(O)C(CCc1cccnc1)CS(=O)(=O)N1CCc2ccc(Cl)cc2C1 (stereo not drawn) [Example 86, N-(1-{[(7-chloro-3,4-dihydroisoquinolin-2(1H)-yl)sulfonyl]methyl}-3-pyridin-3-ylpropyl)-N-hydroxyformamide]
